In ChEMBL document CHEMBL1122788, “Quantitative relationships between alpha-adrenergic activity and binding affinity of alpha-adrenoceptor agonists and antagonists” (J Med Chem, 1984):

Key:
[1] = target: T1, Adrenergic receptor alpha-2 (Rattus norvegicus, UniProt P22086+P19328+P22909); assay: Antagonist activity against B-HT 933-induced alpha-2-adrenoceptor-mediated vasoconstriction in pithed normotensive rats; format: functional
T1 sequence (P22086 whole entry): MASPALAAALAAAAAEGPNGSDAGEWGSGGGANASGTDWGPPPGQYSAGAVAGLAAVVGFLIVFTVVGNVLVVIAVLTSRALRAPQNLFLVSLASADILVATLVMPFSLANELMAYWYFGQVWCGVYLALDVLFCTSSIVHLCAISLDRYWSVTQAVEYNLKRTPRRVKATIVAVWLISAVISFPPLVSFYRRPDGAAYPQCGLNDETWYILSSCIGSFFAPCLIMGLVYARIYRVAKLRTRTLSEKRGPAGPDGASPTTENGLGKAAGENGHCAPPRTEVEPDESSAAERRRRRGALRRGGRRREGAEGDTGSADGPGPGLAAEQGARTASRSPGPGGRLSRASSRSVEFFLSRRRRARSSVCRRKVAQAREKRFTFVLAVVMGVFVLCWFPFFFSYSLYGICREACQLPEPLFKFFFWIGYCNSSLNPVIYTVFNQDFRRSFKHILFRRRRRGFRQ
T1 sequence (P19328 whole entry): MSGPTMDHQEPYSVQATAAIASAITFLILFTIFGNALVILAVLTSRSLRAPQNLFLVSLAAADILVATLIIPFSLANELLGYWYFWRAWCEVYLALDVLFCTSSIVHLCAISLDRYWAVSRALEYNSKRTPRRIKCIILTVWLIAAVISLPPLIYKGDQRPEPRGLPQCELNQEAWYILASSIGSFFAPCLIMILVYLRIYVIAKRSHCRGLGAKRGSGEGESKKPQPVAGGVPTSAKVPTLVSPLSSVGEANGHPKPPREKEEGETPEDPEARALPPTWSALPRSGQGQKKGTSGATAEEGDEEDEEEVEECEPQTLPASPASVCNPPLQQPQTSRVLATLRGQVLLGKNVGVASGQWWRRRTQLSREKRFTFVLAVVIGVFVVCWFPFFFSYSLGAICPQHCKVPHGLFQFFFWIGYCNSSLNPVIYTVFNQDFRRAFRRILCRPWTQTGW
T1 sequence (P22909 whole entry): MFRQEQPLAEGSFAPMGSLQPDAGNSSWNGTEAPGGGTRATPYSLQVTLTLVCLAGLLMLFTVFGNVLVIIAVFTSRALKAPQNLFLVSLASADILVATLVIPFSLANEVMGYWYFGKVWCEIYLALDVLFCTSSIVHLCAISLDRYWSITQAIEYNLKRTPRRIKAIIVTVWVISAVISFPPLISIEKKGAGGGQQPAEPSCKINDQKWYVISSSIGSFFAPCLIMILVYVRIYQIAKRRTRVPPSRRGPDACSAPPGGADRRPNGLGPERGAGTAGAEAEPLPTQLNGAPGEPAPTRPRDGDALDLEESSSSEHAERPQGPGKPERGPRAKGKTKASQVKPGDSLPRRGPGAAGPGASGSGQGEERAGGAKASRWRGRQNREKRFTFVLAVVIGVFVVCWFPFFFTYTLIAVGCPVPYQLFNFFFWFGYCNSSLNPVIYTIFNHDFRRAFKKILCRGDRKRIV

[2] = target: T2, Adrenergic receptor alpha-1 (Homo sapiens, UniProt P35348+P25100+P35368); assay: In vitro antagonist activity against (-)-phenylephrine or (-)-norepinephrine-induced alpha1-adrenoceptor-mediated vasoconstriction of rabbit isolated pulmonary artery.; format: functional, Oryctolagus cuniculus; conditions: target entry is the homologue from another species
T2 sequence (P35348 whole entry): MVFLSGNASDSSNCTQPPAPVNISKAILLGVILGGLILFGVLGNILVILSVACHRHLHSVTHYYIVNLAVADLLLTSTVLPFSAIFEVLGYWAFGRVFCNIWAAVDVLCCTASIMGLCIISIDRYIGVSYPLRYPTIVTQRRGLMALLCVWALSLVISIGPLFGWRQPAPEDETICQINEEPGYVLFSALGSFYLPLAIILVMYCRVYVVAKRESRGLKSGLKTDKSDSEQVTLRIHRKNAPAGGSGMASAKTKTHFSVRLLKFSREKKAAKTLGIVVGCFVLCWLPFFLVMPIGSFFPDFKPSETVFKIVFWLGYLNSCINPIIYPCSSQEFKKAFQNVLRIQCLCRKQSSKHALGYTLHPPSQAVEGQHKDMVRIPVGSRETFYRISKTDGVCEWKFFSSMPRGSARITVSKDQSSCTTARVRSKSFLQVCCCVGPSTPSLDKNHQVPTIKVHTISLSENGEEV
T2 sequence (P25100 whole entry): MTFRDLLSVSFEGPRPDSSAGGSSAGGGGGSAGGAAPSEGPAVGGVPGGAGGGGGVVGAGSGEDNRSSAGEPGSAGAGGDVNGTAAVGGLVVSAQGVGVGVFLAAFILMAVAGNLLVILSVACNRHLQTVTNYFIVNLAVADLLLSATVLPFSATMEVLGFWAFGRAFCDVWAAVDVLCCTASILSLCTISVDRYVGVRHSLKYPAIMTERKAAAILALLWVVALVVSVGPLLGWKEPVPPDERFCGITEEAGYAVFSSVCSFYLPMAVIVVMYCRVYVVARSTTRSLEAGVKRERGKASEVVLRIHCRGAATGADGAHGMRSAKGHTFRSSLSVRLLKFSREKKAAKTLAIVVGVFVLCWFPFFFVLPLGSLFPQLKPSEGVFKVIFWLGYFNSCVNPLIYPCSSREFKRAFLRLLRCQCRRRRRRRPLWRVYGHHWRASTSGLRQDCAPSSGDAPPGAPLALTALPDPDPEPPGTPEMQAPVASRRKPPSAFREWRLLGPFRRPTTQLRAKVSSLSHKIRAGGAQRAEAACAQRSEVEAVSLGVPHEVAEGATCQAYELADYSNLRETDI
T2 sequence (P35368 whole entry): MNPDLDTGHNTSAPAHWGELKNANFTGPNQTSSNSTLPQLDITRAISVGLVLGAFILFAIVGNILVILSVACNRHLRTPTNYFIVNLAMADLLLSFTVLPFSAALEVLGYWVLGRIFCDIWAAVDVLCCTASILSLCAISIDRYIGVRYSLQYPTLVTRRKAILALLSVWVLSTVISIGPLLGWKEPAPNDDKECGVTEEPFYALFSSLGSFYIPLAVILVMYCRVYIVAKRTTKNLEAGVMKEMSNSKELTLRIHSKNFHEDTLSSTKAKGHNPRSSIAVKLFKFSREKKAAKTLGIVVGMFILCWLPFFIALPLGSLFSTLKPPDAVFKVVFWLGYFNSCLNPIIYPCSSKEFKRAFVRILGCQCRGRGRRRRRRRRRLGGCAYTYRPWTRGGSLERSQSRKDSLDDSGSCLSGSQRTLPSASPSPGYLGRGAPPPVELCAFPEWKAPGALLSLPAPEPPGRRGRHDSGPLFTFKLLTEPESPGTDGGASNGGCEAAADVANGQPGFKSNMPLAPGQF

[3] = target: T1, Adrenergic receptor alpha-2; assay: Inhibition of specific [3H]clonidine binding (0.4 nM) to rat brain membranes alpha-2 adrenergic receptor; format: cell membranes, Membrane

Row | SMILES | pA2 [1] | pA2 [2] | IC50 [3] [µM]
1 | CN1C[C@H](C(=O)N[C@]2(C)O[C@@]3(O)[C@@H]4CCCN4C(=O)[C@H](Cc4ccccc4)N3C2=O)C[C@@H]2c3cccc4[nH]cc(c34)C[C@H]21 [DIHYDROERGOTAMINE] | 7.25 | 7.55 | 0.0037
2 | C=CCN1Cc2ccccc2-c2ccccc2C1 [AZAPETINE] | 4.88 | 6.96 | 1.3
